Reference: patent US11026963B2, “Senolytic compositions and uses thereof” (Rubedo Life Sciences, Inc., priority 2018, dated 2021)

What was measured:
[1] = system: Normal human fibroblasts (IMR90); assay: Compound toxicity towards normal proliferative, senescent or quiescent fibroblasts (XTT cell viability assay); format: cell-based; conditions: IC50 against normal, proliferating cells divided by IC50 versus senescent (doxorubicin-induced) cells, three days treatment
Protocol: Normal human fibroblasts (IMR90) and patient-derived β-galactosidase (GLB1) or α-fucosidase (FUCA1) deficient cells were used to determine change in cell viability after exposure to compound. Cells were cultured with DMEM and 10% heat inactivated FBS under a controlled atmosphere of 5% carbon dioxide and 5% oxygen, […] and confirmed by the absence of senescence associated β-galactosidase (SA-β-Gal) staining and the capacity to re-enter the cell cycle. Senescence was induced by treatment with doxorubicin and confirmed by SA-β-Gal positive staining and the lack of DNA replication. Cells were treated with compound for three days. Cell viability was determined by mitochondrial dehydrogenase activity (XTT assay. Cayman Chemical) at ten concentrations of the tested compound. To generate dose-response curves, data was fitted to a four-parameter Hill function and the IC50 was determined at Y=0.5 viability. The senolytic index (S.I.) for each compound was determined by dividing the IC50 against normal, proliferating cells by the IC50 versus senescent cells. Senolytic index data is shown in Table 1 with compounds having S.I.<1 (−), S.I>1 (+), S.I.>5 (++) and S.I>10 (+++).

[2] = system: senescent C57BL/6 mouse hepatocytes; assay: Effect of compound (113) on doxorubicin-induced senescent hepatocytes after in vivo administration
Protocol: Two groups of C57BL/6 mice (N=9/group) were injected intraperitoneally with doxorubicin (20 mg/kg) to induce hepatocellular senescence. 4 and 6 days later groups were injected i.p. with PBS or compound (113) (aka RBO-013) (2×20 mg/kg). A third group of animals served as controls. After an additional 2 days livers were removed and sectioned (30 μm) before staining for SA-β-Gal as previously described (FIGS. 4A and 4B). […] This senolytic effect was also corroborated by using quantitative PCR to detect mRNA levels of Cdkn2a (p16^INK4a) and IL-6 (N.B. Cdkn2a expression was exclusively detected in animals that received doxorubicin). Expression levels were reported relative to Actb as the reference gene.

[3] = system: Mouse embryonic fibroblast cells (MEFs); assay: Viability of proliferating or senescent mouse embryonic fibroblasts (DAPI/PI staining); format: cell-based; conditions: 4 days
Protocol: Mouse embryonic fibroblast cells were incubated with 300 nM doxorubicin for 24 hrs to induce senescence. Cells were washed and after incubation in media for 7 days, senescence was confirmed by staining for SA-β-Gal (Itahana et al., Methods Mol. Biol. 371 (2007) 21-31) and lack of incorporation of 5-ethynyl-2′-deoxyuridine (EdU) (see Yu et al., J. Immunol. Methods 350 (2009) 29-35).
Proliferating or senescent MEFs were treated with increasing concentrations of either FURGal (101) or 5-fluorouridine (FUR) (102) for 4 days. Cells were washed and stained with 4′,6-diamidino-2-phenylindole (DAPI) and propidium iodide (PI) and the fraction of viable cells was assessed from the ratio of PI-positive nuclei over PI-negative nuclei.

C57BL/6 mice = assay: Comparative toxicity of FURGal and FUR to C57BL/6 mice; format: in vivo; conditions: six days after treatment
Protocol: Equimolar doses of (101)(160 mg/kg) and (102) (100 mg/kg) were administered by single dose intraperitoneal injection to 2 groups of mice (N=3 each). Six days after treatment blood cell counts were determined by standard methods (FIG. 2A), bone marrow cells from femur were counted (FIG. 2B) and spleen weights (FIG. 2C) determined to compare the toxicity of the two drugs.

[4] = system: senescent C57BL/6 mouse hepatocytes; assay: Effect of FURGal on doxorubicin-induced senescent hepatocytes after in vivo administration; conditions: doxorubicin 25 mg/kg i.p.; FURGal 140 mg/kg 4 and 6 days later; livers after additional 4 days; FIG. 3C
Protocol: Two groups of C57BL/6 mice (N=5/group) were injected intraperitoneally with doxorubicin (25 mg/kg) to induce hepatocellular senescence. 4 and 6 days later groups were injected with PBS or FURGal (140 mg/kg) (101). A third group of 5 animals served as controls. After an additional 4 days livers were removed and sectioned (30 μm) before staining for SA-β-Gal (6 fields/animal were assessed) (FIGS. 3A and 3B).

[5] = compared with seco product (78); Tietze et al.; cited from earlier work
[6] = system: senescent lung cells in C57BL/6 mice; assay: Senolytic effect of compound (119) on doxorubicin-induced senescent lung cells after in vivo administration; design: species or system mouse
Protocol: Four groups of C57BL/6 mice (N=9/group) were injected intravenously with doxorubicin (15 mg/kg) to induce senescence in lung tissue. Five days later groups were injected with vehicle or compound (119) (aka RBO-019) (10, 20 or 40 mg/kg i.v.). After an additional 3 days lungs were removed and the left lobes sectioned before staining for SA-β-Gal as previously described (FIGS. 5A and 5B). […] This senolytic effect was also corroborated by using quantitative PCR to detect mRNA levels of Cdkn2a (p16^INK4a). Expression levels were reported relative to Actb as the reference gene.

For CC(=O)OC[C@H]1O[C@@H](ONC(=O)/C=C/c2ccc(CNCCc3c(C)[nH]c4ccccc34)cc2)[C@H](OC(C)=O)[C@@H](OC(C)=O)[C@H]1OC(C)=O [(113), (2R,3S,4S,5R,6S)-2-(Acetoxymethyl)-6-(((E)-3-(4-(((2-(2-methyl-1H-indol-3yl)ethyl)amino)methyl)phenyl)acrylamido)oxy)tetrahydro-2H-pyran-3,4,5-triyl Triacetate], the “Senolytic Index (S.I.)” value [1] was “+++ (S.I>10 (+++))”, the “senescent hepatocytes (as visualized by SA-β-Gal staining)” value ([2]; doxorubicin 20 mg/kg i.p., 2×20 mg/kg i.p. 4 and 6 days later, livers after additional 2 days, FIG. 4C) was “reduction” and the “Cdkn2a (p16INK4a) gene expression in liver” value ([2]; quantitative PCR, relative to Actb, doxorubicin 20 mg/kg, 2×20 mg/kg i.p., FIG. 4D) was “significant reduction”. The “IL-6 gene expression in liver” value ([2]; quantitative PCR, relative to Actb, doxorubicin 20 mg/kg, 2×20 mg/kg i.p., FIG. 4E) was “significant reduction”.
In the case of O=c1[nH]c(=O)n([C@@H]2O[C@H](CO[C@@H]3O[C@H](CO)[C@H](O)[C@H](O)[C@H]3O)[C@@H](O)[C@H]2O)cc1F [(101), 5-fluorouridine-5′-O-β-D-galactopyranoside], the “Senolytic Index (S.I.)” value [1] is reported as “+++ (S.I>10 (+++))”, the “toxicity towards senescent MEFs” value ([3]; doxorubicin-induced senescent MEFs, FIG. 1B) is reported as “equitoxic” and the “cell viability / toxicity towards proliferating cells” value ([3]; proliferating MEFs, increasing concentrations (as high as 4 mM), FIG. 1A) is reported as “completely non-toxic”. The “toxicity towards platelets, neutrophils, lymphocytes and bone marrow cells” value (C57BL/6 mice; equimolar single i.p. dose: (101) 160 mg/kg, (102) 100 mg/kg, FIG. 2A, 2B) was “negligible toxicity”, the “effects on spleen weight” value (C57BL/6 mice; single i.p. dose 160 mg/kg, in comparison to FUR (102) 100 mg/kg, FIG. 2C) was “minimal effects” and the “senescent hepatocytes (SA-β-Gal staining of liver sections)” value [4] was “numerical trend for a reduction”.
For C[C@@H](Cl)[C@@H]1CN(C(=O)c2cc3cc(OCCN(C)C)ccc3[nH]2)c2cc(O[C@@H]3O[C@H](CO)[C@H](O)[C@H](O)[C@H]3O)c3ccccc3c21 [Compound (77)], the “fold less cytotoxic than hydrolyzed seco product (78)” value [5] is listed as “greater than 4000 fold”.
In the case of CC(=O)O[C@H]1[C@H](OC(C)=O)[C@H](ONC(=O)/C=C/c2ccc(CNCCc3c(C)[nH]c4ccccc34)cc2)O[C@@H](C)[C@H]1OC(C)=O [(119), (2S,3R,4R,5S,6S)-2-Methyl-6-(((E)-3-(4-(((2-(2-methyl-1H-indol-3-yl)ethyl)amino)methyl)phenyl)acrylamido)oxy)tetrahydro-2H-pyran-3,4,5-triyl triacetate], the “Senolytic Index (S.I.)” value [1] is reported as “+++ (S.I>10 (+++))”, the “SA-β-Gal staining in lung sections” value ([6]; doxorubicin 15 mg/kg i.v., 10, 20 or 40 mg/kg i.v. five days later, lungs after additional 3 days, FIG. 5C) is reported as “dose-dependent reduction” and the “Cdkn2a gene expression in lung” value ([6]; quantitative PCR, relative to Actb, 10, 20 or 40 mg/kg i.v., FIG. 5D) is reported as “dose-dependent reduction”.
